Key:
Conditions in all cases: trolox equivalents
ORAC, peroxyl radical = assay: ORAC, peroxyl radical
Source text: (§1) Antiviral EO compositions as described herein can provide antioxidant properties to a subject or host system. Antioxidants can enhance neutrophil function, improve fertility, reduce heat stress related pregnancy losses, reduce frequency of retained placentas, and reduce metritis in dairy cows. Oxygen radical absorbance capacity (ORAC) is the ability of a compound or composition to act as a proton donor and reducing agent for oxygen radicals. In particular, ORAC measures the ability of a compound or composition to act as a reducing agent for peroxyl radicals, hydroxyl radicals, peroxynitrite, superoxide anion, and singlet oxygen, the five most damaging oxygen radicals.
(§2) ORAC capabilities of EO compositions were tested Brunswick Labs, Massachusetts. Table 20 illustrates the antioxidant ability of several embodiments provided herein, as compared to an industry standard antioxidant, Vitamin E. Results are expressed as trolox equivalents (TE/100 g) for each composition: […]

ORAC, hydroxyl radical = assay: ORAC, hydroxyl radical
Source text: as §1, §2

ORAC, peroxynitrite = assay: ORAC, peroxynitrite
Source text: as §1, §2

ORAC, superoxide anion = assay: ORAC, superoxide anion
Source text: as §1, §2

ORAC, singlet oxygen = assay: ORAC, singlet oxygen
Source text: as §1, §2

Total ORAC = assay: Total ORAC
Source text: as §1, §2

Substance | ORAC, Peroxyl radical (ORAC, peroxyl radical) [TE/100 g] | ORAC, Hydroxyl radical (ORAC, hydroxyl radical) [TE/100 g] | ORAC, Peroxynitrite (ORAC, peroxynitrite) [TE/100 g] | ORAC, Superoxide anion (ORAC, superoxide anion) [TE/100 g] | ORAC, Singlet oxygen (ORAC, singlet oxygen) [TE/100 g] | Total ORAC (Total ORAC) [TE/100 g]
Arabinogalactan | 20600 | 46400 | 1200 | 16600 | 11600 | 96400
Vitamin E [Natural Vitamin E] | 2100 | 0 | 0 | 0 | 37100 | 39200

Source: patent US12491225B2, “Antiviral compositions and methods” (RALCO NUTRITION, INC., priority 2014, dated 2025)
